This is an account of results in patent US9045435B2, “Quinazoline compounds as sodium channel blockers” (Purdue Pharma, L.P., priority 2010, dated 2015).

Read-outs that look alike come from different tables or passages of the source. Some results are limits rather than exact numbers.

The target of test [1] is human Nav1.7 (Homo sapiens, UniProt Q15858). The test is described as follows: FLIPR or FLIPR TETRA sodium dye assay with KCl and test article pre-incubation. The class given is cell-based.
In test [2] the target is hNav1.7 (Homo sapiens, UniProt Q15858). As to the kind of experiment: Electrophysiology (EP) assay, whole-cell patch clamp. The note with it: for Kd: resting block dissociation constant, read-out: EP Nav1.7 Kr. The class given is cell-based. As to the method: The hNav1.7 expressing HEK-293 cells were plated on 35 mm culture dishes pre-coated with poly-D-lysine in standard DMEM culture media (Mediatech, Inc., Herndon, Va.) and incubated in a 5% CO2 incubator at 37° C. Cultured cells were used approximately 12-48 hours after plating.
On the day of experimentation, the 35 mm dish was placed on the stage of an inverted microscope equipped with a perfusion system that continuously perfuses the culture dish with fresh recording media. A gravity driven superfusion system was used to apply test solutions directly to the cell under evaluation. This system consists of an array of glass pipette glass connected to a motorized horizontal translator. The outlet of the shooter was positioned approximately 100 μm from the cell of interest.
Whole cell currents were recorded using the whole-cell patch clamp configuration using an Axopatch 200B amplifier (Axon Instruments, Foster City Calif.), 1322A A/D converter (Axon Instruments) and pClamp software (v. 8; Axon Instruments) and stored on a personal computer. Gigaseals were formed and the whole-cell configuration was established in voltage clamp mode, and membrane currents generated by hNav1.7 were recorded in gap-free mode. Borosilicate glass pipettes have resistance values between 1.5 and 2.0 MΩ when filled with pipette solution and series resistance (<5 MΩ) was compensated 75-80%. Signals were sampled at 50 kHz and low pass filtered at 3 kHz.
After establishing the whole-cell configuration in voltage clamp mode, voltage protocols were run to establish the 1) test potential, 2) holding potential, and 3) the conditioning potential for each cell.
After establishing the whole-cell configuration in voltage clamp mode, a standard I-V protocol was run to determine the potential at which the maximal current (Imax) is elicited. This potential was the test potential (Vt). To determine a conditioning potential at which 100% of channels were in the inactivated state, a standard steady-state inactivation (SSIN) protocol was run using a series of fifteen 100 ms-long depolarizing prepulses, incrementing in 10 mV steps, immediately followed by a 5 ms testing pulse, Vt, to Vmax. This protocol also permitted determination of the holding potential at which all channels are in the resting state.
For compounds causing significant retardation of recovery from inactivation, an estimate of the affinity for the inactivated state of the channel (Ki) was generated using the following protocol. From the negative, no residual inactivation, holding potential, the cell was depolarized to the conditioning voltage for 2-5 seconds, returned to the negative holding potential for 10-20 ms to relieve fast inactivation and then depolarized to the test potential for ˜15 ms. This voltage protocol was repeated every 10-15 seconds, first to establish a baseline in the absence of the test compound, then in the presence of the test compound.
After a stable baseline was established, the test compound was applied and block of the current elicited by the test pulse assessed. In some cases, multiple cumulative concentrations were applied to identify a concentration that blocked between 40-60% of this current. Washout of the compound was attempted by superfusing with control solution once steady-state block was observed. An estimate of the Ki was calculated as follows: Ki=[drug]*{FR/(1−FR)}, Eq. 1 where [drug] is the concentration of a drug, and FR=I(after drug)/I(control), Eq. 2 where I is the peak current amplitude. If multiple concentrations were used, Ki was determined from the fit of a logistic equation to FRs plotted against corresponding drug concentrations.
In the alternative, the voltage clamp protocol to examine hNav1.7 currents was as follows. […]

For test [3], the target named is Nav1.3 (Homo sapiens, UniProt Q9NY46). As to conditions: read-out: TTX IC50; cited from earlier work.
Test [4] deals with Nav1.6 (Homo sapiens, UniProt Q9UQD0). As to conditions: read-out: TTX IC50; cited from earlier work.
Test [5] deals with Nav1.8 (Homo sapiens, UniProt Q9Y5Y9). As to conditions: read-out: TTX IC50; cited from earlier work.
In test [6] the target is Nav1.9 (Homo sapiens, UniProt Q9UI33). As to conditions: read-out: TTX IC50; cited from earlier work.
For test [7], the target named is Nav1.1 (Homo sapiens, UniProt P35498). The note with it: read-out: TTX IC50; cited from earlier work.
For test [8], the target named is Nav1.2 (Homo sapiens, UniProt Q99250). The note with it: read-out: TTX IC50; cited from earlier work.
[9] abbreviates: sodium dye assay with KCl, recombinant Nav1.7/HEK293 cells, read-out: FLIPR Nav1.7 IC50 (μM) ± SEM.
The mark [10] stands for this setting: affinity for the inactivated state of the channel, HEK-293 cells, spread on the next grid line, read-out: EP Nav1.7 Kj.
The mark [11] stands for this setting: HEK-293 cells, spread on the next grid line.

human Nav1.7, sequence (Q15858 1-1977 isoform Q15858-3): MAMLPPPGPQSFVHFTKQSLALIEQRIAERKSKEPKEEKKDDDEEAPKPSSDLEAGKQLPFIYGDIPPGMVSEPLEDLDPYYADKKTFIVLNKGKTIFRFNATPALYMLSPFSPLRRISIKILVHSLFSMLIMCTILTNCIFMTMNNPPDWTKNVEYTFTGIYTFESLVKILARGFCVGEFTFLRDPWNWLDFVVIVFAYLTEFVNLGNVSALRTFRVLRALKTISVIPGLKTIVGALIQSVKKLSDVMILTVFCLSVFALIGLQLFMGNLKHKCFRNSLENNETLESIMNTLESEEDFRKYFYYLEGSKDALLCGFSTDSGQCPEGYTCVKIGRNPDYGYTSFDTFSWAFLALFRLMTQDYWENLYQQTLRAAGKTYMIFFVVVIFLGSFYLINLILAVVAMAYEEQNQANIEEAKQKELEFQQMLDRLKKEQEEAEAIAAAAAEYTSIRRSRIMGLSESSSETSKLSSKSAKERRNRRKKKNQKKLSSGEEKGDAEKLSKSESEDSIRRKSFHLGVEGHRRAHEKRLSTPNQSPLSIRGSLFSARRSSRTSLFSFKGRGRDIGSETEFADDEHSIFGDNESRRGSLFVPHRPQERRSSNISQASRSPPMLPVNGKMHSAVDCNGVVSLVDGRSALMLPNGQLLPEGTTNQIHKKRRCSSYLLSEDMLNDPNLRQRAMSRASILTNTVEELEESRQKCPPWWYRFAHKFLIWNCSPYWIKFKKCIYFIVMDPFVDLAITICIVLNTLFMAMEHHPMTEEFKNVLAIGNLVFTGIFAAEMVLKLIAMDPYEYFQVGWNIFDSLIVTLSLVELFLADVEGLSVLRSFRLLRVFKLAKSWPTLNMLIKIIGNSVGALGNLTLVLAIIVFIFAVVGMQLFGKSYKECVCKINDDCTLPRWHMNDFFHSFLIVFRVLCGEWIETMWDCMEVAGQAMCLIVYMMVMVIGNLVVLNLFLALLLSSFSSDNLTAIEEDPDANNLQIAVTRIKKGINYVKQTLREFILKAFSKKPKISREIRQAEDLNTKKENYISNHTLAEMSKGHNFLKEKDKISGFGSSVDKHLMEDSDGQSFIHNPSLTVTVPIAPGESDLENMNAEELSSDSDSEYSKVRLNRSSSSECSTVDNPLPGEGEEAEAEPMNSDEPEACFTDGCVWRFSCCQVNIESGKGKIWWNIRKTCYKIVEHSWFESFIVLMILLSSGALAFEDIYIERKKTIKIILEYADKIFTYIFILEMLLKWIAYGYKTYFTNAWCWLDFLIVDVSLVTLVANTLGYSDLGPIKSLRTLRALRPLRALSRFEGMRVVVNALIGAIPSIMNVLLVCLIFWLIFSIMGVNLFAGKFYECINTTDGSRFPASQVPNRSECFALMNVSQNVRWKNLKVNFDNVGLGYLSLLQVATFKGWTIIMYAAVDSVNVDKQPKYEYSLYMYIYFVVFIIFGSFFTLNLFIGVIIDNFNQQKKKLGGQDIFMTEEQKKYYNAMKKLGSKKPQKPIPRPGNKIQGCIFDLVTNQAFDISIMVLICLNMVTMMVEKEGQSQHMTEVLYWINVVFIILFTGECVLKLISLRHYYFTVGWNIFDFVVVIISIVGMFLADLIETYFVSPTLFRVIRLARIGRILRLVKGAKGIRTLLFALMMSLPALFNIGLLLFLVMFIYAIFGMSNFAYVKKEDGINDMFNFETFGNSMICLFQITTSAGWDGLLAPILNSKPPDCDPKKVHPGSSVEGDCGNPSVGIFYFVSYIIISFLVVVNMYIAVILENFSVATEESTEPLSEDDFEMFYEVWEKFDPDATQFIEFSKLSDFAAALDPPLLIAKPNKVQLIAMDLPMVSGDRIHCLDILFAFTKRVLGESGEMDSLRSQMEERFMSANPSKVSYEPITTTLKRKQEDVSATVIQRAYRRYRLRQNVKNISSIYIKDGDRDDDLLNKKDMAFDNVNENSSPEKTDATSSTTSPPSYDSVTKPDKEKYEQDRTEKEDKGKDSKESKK
hNav1.7, sequence (Q15858 1-1977 isoform Q15858-3): as above
Nav1.2, sequence (Q99250 whole entry, looked up): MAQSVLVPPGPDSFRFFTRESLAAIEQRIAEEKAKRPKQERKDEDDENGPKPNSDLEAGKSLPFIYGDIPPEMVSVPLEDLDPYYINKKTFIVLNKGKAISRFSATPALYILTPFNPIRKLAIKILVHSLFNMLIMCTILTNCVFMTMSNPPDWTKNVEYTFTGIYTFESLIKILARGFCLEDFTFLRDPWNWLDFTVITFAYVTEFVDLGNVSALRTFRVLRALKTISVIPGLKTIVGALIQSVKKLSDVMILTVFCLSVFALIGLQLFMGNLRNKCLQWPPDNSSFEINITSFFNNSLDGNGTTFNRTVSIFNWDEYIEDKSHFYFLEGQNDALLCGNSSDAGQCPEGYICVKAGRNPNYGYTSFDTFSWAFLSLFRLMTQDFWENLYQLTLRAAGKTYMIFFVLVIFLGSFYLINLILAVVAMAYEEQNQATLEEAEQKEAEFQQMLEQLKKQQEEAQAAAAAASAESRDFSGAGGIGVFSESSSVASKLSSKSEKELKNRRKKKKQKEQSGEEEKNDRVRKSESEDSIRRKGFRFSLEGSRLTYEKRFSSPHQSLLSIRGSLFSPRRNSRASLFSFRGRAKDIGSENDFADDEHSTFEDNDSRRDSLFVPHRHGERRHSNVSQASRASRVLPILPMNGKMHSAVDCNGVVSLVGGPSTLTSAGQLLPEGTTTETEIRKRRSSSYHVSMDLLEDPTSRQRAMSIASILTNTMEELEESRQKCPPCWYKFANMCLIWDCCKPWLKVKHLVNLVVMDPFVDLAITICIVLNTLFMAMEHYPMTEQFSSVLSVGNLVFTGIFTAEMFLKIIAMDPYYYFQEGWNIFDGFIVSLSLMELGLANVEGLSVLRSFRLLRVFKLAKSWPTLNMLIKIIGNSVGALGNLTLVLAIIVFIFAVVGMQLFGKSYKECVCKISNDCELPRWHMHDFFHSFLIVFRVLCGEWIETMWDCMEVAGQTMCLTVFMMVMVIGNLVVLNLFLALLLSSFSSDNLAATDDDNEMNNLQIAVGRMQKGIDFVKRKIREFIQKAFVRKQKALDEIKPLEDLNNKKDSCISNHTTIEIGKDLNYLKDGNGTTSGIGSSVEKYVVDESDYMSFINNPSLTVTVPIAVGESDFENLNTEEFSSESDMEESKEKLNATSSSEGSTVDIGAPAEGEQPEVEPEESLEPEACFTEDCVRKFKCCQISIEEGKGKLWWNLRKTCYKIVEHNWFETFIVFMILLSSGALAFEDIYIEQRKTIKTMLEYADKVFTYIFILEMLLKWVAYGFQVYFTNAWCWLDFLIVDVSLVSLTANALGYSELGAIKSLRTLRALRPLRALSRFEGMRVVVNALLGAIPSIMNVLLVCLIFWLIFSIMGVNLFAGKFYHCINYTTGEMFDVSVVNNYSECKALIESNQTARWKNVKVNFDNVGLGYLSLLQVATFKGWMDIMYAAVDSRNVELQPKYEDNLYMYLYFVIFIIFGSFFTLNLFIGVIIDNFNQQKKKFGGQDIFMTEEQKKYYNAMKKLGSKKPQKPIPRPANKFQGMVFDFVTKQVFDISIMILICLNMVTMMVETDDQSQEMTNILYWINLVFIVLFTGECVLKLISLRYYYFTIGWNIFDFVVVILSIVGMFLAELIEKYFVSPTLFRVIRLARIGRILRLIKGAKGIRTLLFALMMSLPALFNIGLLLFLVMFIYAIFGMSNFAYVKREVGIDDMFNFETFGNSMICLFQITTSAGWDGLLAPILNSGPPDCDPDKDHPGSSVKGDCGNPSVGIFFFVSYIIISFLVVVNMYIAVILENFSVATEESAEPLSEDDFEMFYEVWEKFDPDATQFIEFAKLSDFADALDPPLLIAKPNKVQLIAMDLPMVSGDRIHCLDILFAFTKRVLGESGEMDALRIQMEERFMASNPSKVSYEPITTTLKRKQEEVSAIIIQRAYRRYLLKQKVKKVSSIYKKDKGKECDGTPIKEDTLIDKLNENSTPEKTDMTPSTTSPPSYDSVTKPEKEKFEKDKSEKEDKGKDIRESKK

For the molecule `NC(=O)c1nc(-c2ccc(Oc3ccccc3)cc2)c2ccccc2n1` [Compound 5, 4-(4-phenoxyphenyl)quinazoline-2-carboxamide], the IC50 (usually the concentration needed to halve the response being measured) in test [1] (setting [9]) was found to be 0.097 µM. In addition, the Ki in test [2] (setting [10]) amounted to 120 nM.
In the case of `NC(=O)[C@H](CO)Nc1nc(-c2ccc(Oc3ccc(F)cc3)cc2)c2ccccc2n1` [Compound 13a, (S)-2-{4-[4-(4-fluorophenoxy)phenyl]quinazolin-2-ylamino}-3-hydroxy-propionamide], the IC50 in test [1] (setting [9]) stood at 0.836 µM. The Ki in test [2] (setting [10]) was 740 nM.
Consider `COC(=O)[C@@H]1CCCN1c1nc(-c2ccc(Oc3ccc(F)cc3)cc2)c2ccccc2n1` [Compound 13f, (S)-methyl 1-(4-(4-(4-fluorophenoxy)phenyl)-quinazolin-2-yl)pyrrolidine-2-carboxylate], for which the IC50 in test [1] (setting [9]) amounted to 0.642 µM. Moreover, the Ki in test [2] (setting [10]) was determined as 620 nM. Further, in test [2] (setting [11]), the Kd was 23900 nM.
`CN1CCN(c2nc(-c3ccc(Oc4ccc(F)cc4)cc3)c3ccccc3n2)CC1` [Compound 13k, 4-(4-(4-fluorophenoxy)phenyl)-2-(4-methylpiperazin-1-yl)quinazoline]: in test [1] (setting [9]), the IC50 was found to be 0.418 µM. Also, the Ki in test [2] (setting [10]) is 70 nM. Moreover, the Kd in test [2] (setting [11]) was found to be 2090 nM.
In the case of `NC(=O)[C@@H]1CCCN1c1nc(-c2ccc(Oc3ccc(F)cc3)cc2)c2ccccc2n1` [Compound 13l, (S)-1-(4-(4-(4-fluorophenoxy)phenyl)quinazolin-2-yl)pyrrolidine-2-carboxamide], in test [1] (setting [9]), the IC50 was 0.105 µM. Further, the Ki in test [2] (setting [10]) worked out at 190 nM.
In the case of `OC[C@H](O)CNc1nc(-c2ccc(Oc3ccc(F)cc3)cc2)c2ccccc2n1` [Compound 13q, (R)-3-((4-(4-(4-fluorophenoxy)phenyl)quinazolin-2-yl)amino)propane-1,2-diol], the IC50 in test [1] (setting [9]) came out at 0.071 µM. The Ki in test [2] (setting [10]) was 220 nM.
In test [1], `CN1[C@@H]2CCC[C@H]1C[C@@H](Nc1nc(-c3ccc(Oc4ccc(F)cc4)cc3)c3ccccc3n1)C2` [Compound 13t, 4-(4-(4-fluorophenoxy)phenyl)-N-((1R,3S,5S)-9-methyl-9-azabicyclo[3.3.1]nonan-3-yl)quinazolin-2-amine] returned an IC50 of 0.228 µM. Moreover, the Ki in test [2] stood at 20 nM.
As for `OCC(CO)Nc1nc(-c2ccc(Oc3ccc(F)cc3)cc2)c2ccccc2n1` [Compound 13u, 2-((4-(4-(4-fluorophenoxy)phenyl)quinazolin-2-yl)amino)propane-1,3-diol], the IC50 in test [1] (setting [9]) came to 0.208 µM. Also, the Ki in test [2] (setting [10]) came out at 640 nM. In addition, the Kd in test [2] (setting [11]) is 55300 nM.
For `O=C1NCCN1CCNc1nc(-c2ccc(Oc3ccc(F)cc3)cc2)c2ccccc2n1` [Compound 13v, 1-(2-((4-(4-(4-fluorophenoxy)phenyl)quinazolin-2-yl)amino)ethyl)imidazolidin-2-one], in test [1] (setting [9]), the IC50 was 0.204 µM. In addition, in test [2] (setting [10]), the Ki was 460 nM. The Kd in test [2] (setting [11]) is 23700 nM.
As for `NN(CCO)c1nc(-c2ccc(Oc3ccc(F)cc3)cc2)c2ccccc2n1` [Compound 13w, 2-(1-(4-(4-(4-fluorophenoxy)phenyl)quinazolin-2-yl)hydrazinyl)ethanol], the IC50 in test [1] (setting [9]) was 0.07 µM.
On the same count and under the same terms, the value for `NC(=O)CNc1nc(-c2ccc(Oc3ccc(F)cc3)cc2)c2ccccc2n1` [Compound 13x, 2-((4-(4-(4-fluorophenoxy)phenyl)quinazolin-2-yl)amino)acetamide] was more than 20 µM; that for `CCOc1nc(-c2ccc(Oc3ccc(F)cc3)cc2)c2ccccc2n1` [Compound 13y, 2-ethoxy-4-(4-(4-fluorophenoxy)phenyl)-quinazoline] was 0.995 µM.
With `Fc1ccc(Oc2ccc(-c3nc(Oc4ccccn4)nc4ccccc34)cc2)cc1` [Compound 13z, 4-(4-(4-fluorophenoxy)phenyl)-2-(pyridin-2-yloxy)quinazoline], the IC50 in test [1] (setting [9]) is 1.91 µM.
Regarding `NC1=N[C@H](O)[C@H]2[C@H]3O[C@]4(O)O[C@@H]([C@@H](O)[C@@]2(N1)[C@@H]4O)[C@]3(O)CO` [TTX, tetrodotoxin], the IC50 in test [3] was 15 nM; in test [4] it was 6 nM; in test [5], 50000 nM; in test [6], 1000 nM; in test [7], 10 nM; in test [8], 10 nM.
